Values belong to the compound of their own block, whether it stands above or below them.
Biological target: PLK1 (Homo sapiens, UniProt P53350)
Experiment: PLK1 Inhibition Assay I (radioactive-phosphate incorporation)
Type: biochemical
Conditions: Ki(app); PLK1 Inhibition Assay I or II (table does not say which)
Outline: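 Ki(app) values came from non-linear regression of initial rates after background subtraction, with phosphopeptide measured by phosphocellulose filter binding and scintillation counting. PLK1 at 2 nM was preincubated with compound (typically from 10 μM, 2-fold dilutions) for 10 min, then run 240 min at 25° C with 350 μM [γ-33P]ATP and 450 μM peptide substrate in HEPES pH 7.5 buffer.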

Chain of PLK1 (P53350 whole entry): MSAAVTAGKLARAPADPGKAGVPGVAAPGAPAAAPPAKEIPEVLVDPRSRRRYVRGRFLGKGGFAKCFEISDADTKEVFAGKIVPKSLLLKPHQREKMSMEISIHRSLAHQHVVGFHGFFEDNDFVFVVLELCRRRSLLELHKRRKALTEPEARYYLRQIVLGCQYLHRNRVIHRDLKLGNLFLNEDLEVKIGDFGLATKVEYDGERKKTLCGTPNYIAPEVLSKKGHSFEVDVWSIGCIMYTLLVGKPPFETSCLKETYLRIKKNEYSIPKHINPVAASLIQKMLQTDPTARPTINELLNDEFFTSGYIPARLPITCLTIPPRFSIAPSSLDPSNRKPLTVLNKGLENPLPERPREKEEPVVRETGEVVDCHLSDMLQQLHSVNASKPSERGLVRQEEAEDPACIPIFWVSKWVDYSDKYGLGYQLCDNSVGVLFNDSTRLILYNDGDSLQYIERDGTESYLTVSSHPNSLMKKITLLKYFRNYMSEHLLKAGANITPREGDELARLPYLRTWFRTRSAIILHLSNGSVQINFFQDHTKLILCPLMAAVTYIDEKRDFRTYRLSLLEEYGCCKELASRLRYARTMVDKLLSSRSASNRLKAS

Ki: > 40 nM
Structure (SMILES): N#Cc1cnc(Oc2ccccc2)nc1-c1c[nH]c2ncc(C(F)(F)F)cc12 [EG4, 2-Phenoxy-4-(5-(trifluoromethyl)-1H-pyrrolo[2,3-b]pyridin-3-yl)pyrimidine-5-carbonitrile]

Ki: > 40 nM
Structure (SMILES): CC(C)Oc1ncc(C#N)c(-c2c[nH]c3ncc(C(F)(F)F)cc23)n1 [EG5, 2-isopropoxy-4-(5-(trifluoromethyl)-1H-pyrrolo[2,3-b]pyridin-3-yl)pyrimidine-5-carbonitrile]

Ki: 3 to 40 nM
Structure (SMILES): CC(C)Nc1ncc(C#N)c(-c2c[nH]c3ncc(Nc4ccccc4)cc23)n1 [EG6, 2-(isopropylamino)-4-(5-(phenylamino)-1H-pyrrolo[2,3-b]pyridin-3-yl)pyrimidine-5-carbonitrile]

Ki: 3 to 40 nM
Structure (SMILES): CNC(=O)c1cccc(Nc2cnc3[nH]cc(-c4nc(NC(C)C)ncc4C#N)c3c2)c1 [EG7, 3-(3-(5-cyano-2-(isopropylamino)pyrimidin-4-yl)-1H-pyrrolo[2,3-b]pyridin-5-ylamino)-N-methylbenzamide]

Ki: 3 to 40 nM
Structure (SMILES): Cc1cnc2[nH]cc(-c3nc(N[C@@H](CO)C(C)C)ncc3C#N)c2c1 [EG8, 2-((R)-1-hydroxy-3-methylbutan-2-ylamino)-4-(5-methyl-1H-pyrrolo[2,3-b]pyridin-3-yl)pyrimidine-5-carbonitrile]

Ki: 3 to 40 nM
Structure (SMILES): CC(C)(Nc1ncc(C#N)c(-c2c[nH]c3ncc(C(F)(F)F)cc23)n1)C(=O)NCC(F)(F)F [IA-0, 2-(5-cyano-4-(5-(trifluoromethyl)-1H-pyrrolo[2,3-b]pyridin-3-yl)pyrimidin-2-ylamino)-2-methyl-N-(2,2,2-trifluoroethyl)propanamide]

Ki: > 40 nM
Structure (SMILES): CC(C)(Nc1ncc(C#N)c(-c2c[nH]c3ncc(C(F)(F)F)cc23)n1)C(=O)NCCC(F)(F)F [IA-1, 2-(5-cyano-4-(5-(trifluoromethyl)-1H-pyrrolo[2,3-b]pyridin-3-yl)pyrimidin-2-ylamino)-2-methyl-N-(3,3,3-trifluoropropyl)propanamide]

Ki: 3 to 40 nM
Structure (SMILES): N#Cc1cnc(NC2(C(=O)NCC(F)(F)F)CCCCC2)nc1-c1c[nH]c2ncc(Cl)cc12 [IA-3, 1-(4-(5-chloro-1H-pyrrolo[2,3-b]pyridin-3-yl)-5-cyanopyrimidin-2-ylamino)-N-(2,2,2-trifluoroethyl)cyclohexanecarboxamide]

Ki: 3 to 40 nM
Structure (SMILES): CC(C)(Nc1ncc(C#N)c(-c2c[nH]c3ncc(Cl)cc23)n1)C(=O)NC1CCCC1 [IA-4, 2-(4-(5-chloro-1H-pyrrolo[2,3-b]pyridin-3-yl)-5-cyanopyrimidin-2-ylamino)-N-cyclopentyl-2-methylpropanamide]

Ki: 3 to 40 nM
Structure (SMILES): CC(C)(Nc1ncc(C#N)c(-c2c[nH]c3ncc(Cl)cc23)n1)C(=O)NC1CCCCC1 [IA-5, 2-(4-(5-chloro-1H-pyrrolo[2,3-b]pyridin-3-yl)-5-cyanopyrimidin-2-ylamino)-N-cyclohexyl-2-methylpropanamide]

Ki: > 40 nM
Structure (SMILES): C[C@H](Nc1ncc(C#N)c(-c2c[nH]c3ncc(Cl)cc23)n1)C(=O)NCC(F)(F)F [IA-6, (2S)-2-(4-(5-chloro-1H-pyrrolo{2,3-b]pyridin-3-yl)-5-cyanopyrimidin-2-ylamino)-N-(2,2,2-trifluoroethyl)propanamide]

Ki: > 40 nM
Structure (SMILES): N#Cc1cnc(NC2(C(=O)NCC(F)(F)F)CCCC2)nc1-c1c[nH]c2ncc(Cl)cc12 [IA-7, 1-(4-(5-chloro-1H-pyrrolo[2,3-b]pyridin-3-yl)-5-cyanopyrimidin-2-ylamino)-N-(2,2,2-trifluoroethyl)cyclopentanecarboxamide]

Ki: > 40 nM
Structure (SMILES): CNC(=O)C(C)(C)Nc1ncc(C#N)c(-c2c[nH]c3ncc(Cl)cc23)n1 [IA-8, 2-(4-(5-chloro-1H-pyrrolo[2,3-b]pyridin-3-yl)-5-cyanopyrimidin-2-ylamino)-N,2-dimethylpropanamide]

Ki: > 40 nM
Structure (SMILES): CC(C)(Nc1ncc(C#N)c(-c2c[nH]c3ncc(C(F)(F)F)cc23)n1)C(=O)O [IA-9, 2-(5-cyano-4-(5-(trifluoromethyl)-1H-pyrrolo[2,3-b]pyridin-3-yl)pyrimidin-2-ylamino)-2-methylpropanoic acid]

Ki: > 40 nM
Structure (SMILES): CC(C)(Nc1ncc(C#N)c(-c2c[nH]c3ncccc23)n1)C(=O)NCC(F)(F)F [IA-10, 2-(5-cyano-4-(1H-pyrrolo[2,3-b]pyridin-3-yl)pyrimidin-2-ylamino)-2-methyl-N-(2,2,2-trifluoroethyl)propanamide]

More lines, now with the values behind:

Structure (SMILES): CCN(CCN(C)C)c1ccc([C@@H](C)Nc2ncc(C#N)c(-c3c[nH]c4ncc(C(F)(F)F)cc34)n2)cn1 [Compound I-296, 2-((R)-1-(6-((2-(dimethylamino)ethyl)(ethyl)amino)pyridin-3-yl)ethylamino)-4-(5-(trifluoromethyl)-1H-pyrrolo[2,3-b]pyridin-3-yl)pyrimidine-5-carbonitrile]
Ki: < 3 nM

Structure (SMILES): C[C@@H](Nc1ncc(C#N)c(-c2c[nH]c3ncc(C(F)(F)F)cc23)n1)c1ccc(NC2CCN(C)CC2)nc1 [Compound I-297, 2-((R)-1-(6-(1-methylpiperidin-4-ylamino)pyridin-3-yl)ethylamino)-4-(5-(trifluoromethyl)-1H-pyrrolo[2,3-b]pyridin-3-yl)pyrimidine-5-carbonitrile]
Ki: < 3 nM

Structure (SMILES): C[C@@H](Nc1ncc(C#N)c(-c2c[nH]c3ncc(C(F)(F)F)cc23)n1)c1ccc(N2CCN3CCC[C@@H]3C2)nc1 [Compound I-298, 2-((R)-1-(6-((R)-hexahydropyrrolo[1,2-a]pyrazin-2(1H)-yl)pyridin-3-yl)ethylamino)-4-(5-(trifluoromethyl)-1H-pyrrolo[2,3-b]pyridin-3-yl)pyrimidine-5-carbonitrile]
Ki: < 3 nM

Structure (SMILES): C[C@@H](Nc1ncc(C#N)c(-c2c[nH]c3ncc(C(F)(F)F)cc23)n1)c1cnc(N2CCN(C)CC2)nc1 [Compound I-299, 2-((R)-1-(2-(4-methylpiperazin-1-yl)pyrimidin-5-yl)ethylamino)-4-(5-(trifluoromethyl)-1H-pyrrolo[2,3-b]pyridin-3-yl)pyrimidine-5-carbonitrile]
Ki: < 3 nM

Structure (SMILES): C[C@@H](Nc1ncc(C#N)c(-c2c[nH]c3ncc(C(F)(F)F)cc23)n1)c1ccc(O[C@@H]2CCN(C)C2)nc1 [Compound I-300, 2-(I-1-(6-(I-1-methylpyrrolidin-3-yloxy)pyridin-3-yl)ethylamino)-4-(5-(trifluoromethyl)-1H-pyrrolo[2,3-b]pyridin-3-yl)pyrimidine-5-carbonitrile]
Ki: < 3 nM

Structure (SMILES): C[C@H](Nc1ncc(C#N)c(-c2c[nH]c3ncc(C(F)(F)F)cc23)n1)c1ccc(O[C@@H]2CCN(C)C2)nc1 [Compound I-301, 2-((S)-1-(6-(I-1-methylpyrrolidin-3-yloxy)pyridin-3-yl)ethylamino)-4-(5-(trifluoromethyl)-1H-pyrrolo[2,3-b]pyridin-3-yl)pyrimidine-5-carbonitrile]
Ki: > 40 nM

Structure (SMILES): C[C@@H](Nc1ncc(C#N)c(-c2c[nH]c3ncc(C(F)(F)F)cc23)n1)c1cnc(O)nc1 [Compound I-302, 2-(I-1-(2-hydroxypyrimidin-5-yl)ethylamino)-4-(5-(trifluoromethyl)-1H-pyrrolo[2,3-b]pyridin-3-yl)pyrimidine-5-carbonitrile]
Ki: < 3 nM

Structure (SMILES): COc1ncc([C@@H](C)Nc2ncc(C#N)c(-c3c[nH]c4ncc(C(F)(F)F)cc34)n2)cn1 [Compound I-303, 2-(I-1-(2-methoxypyrimidin-5-yl)ethylamino)-4-(5-(trifluoromethyl)-1H-pyrrolo[2,3-b]pyridin-3-yl)pyrimidine-5-carbonitrile]
Ki: < 3 nM

— patent US8530489B2 (Vertex Pharmaceuticals Incorporated, priority 2006, dated 2013)
